Reference: patent US20260053782A1, “TREATMENT REGIMENS FOR PARKINSON'S DISEASE” (BIAL - PORTELA & CA, S.A., priority 2022, published 2026)
Each block holds one molecule with its values, some of them ahead of it.

Columns and labels:
[1] = system: patients suffering from early idiopathic Parkinson's disease; settings: addition of entacapone vs levodopa-only therapy; levodopa-naïve patients; cited from earlier work
[2] = cited from earlier work
[3] = Levodopa pharmacokinetics over 12 hours after 2 weeks of each LD/CD regimen with or without opicapone 50 mg (Phase II open-label trial); settings: human, in vivo
Method: The invention was discovered through a Phase IL, randomized, open-label trial evaluating the effect of opicapone (50 mg once-daily) on L-DOPA pharmacokinetics in Parkinson's disease patients with end-of-dose motor fluctuations taking different levodopa/carbidopa (LD/CD) sparing regimens (EudraCT number: 2020-003139-12).
Following screening, all subjects received an LD/CD dose and regimen of 100/25 mg QD5 (giving a total daily dose of 500/125 mg) fixed every 3 hours (from 8:00 to 20:00) for 14±2 days. This is the reference regimen. […]
The pharmacokinetic parameters assessed for each of the regimens included maximum observed plasma concentration (Cmax), time to achieve peak plasma levels (tmax), minimum observed plasma concentration (Cmin), plasma elimination half-life (t1/2), area under the curve (AUC) and fluctuation index (FI, as an expression of peak-to-trough fluctuation, Cmax and Cmin relative to average concentration Cavg).

[4] = system: Parkinson's disease patients with end-of-dose motor fluctuations; experiment: 12-hour patient ON/OFF monitoring registered by investigators on pharmacokinetics days; assay type: in vivo, human; settings: addition of opicapone; overall summary
Excerpt: Subjects were aged ≥30 years with a clinical diagnosis of idiopathic Parkinson's disease according to the United Kingdom Parkinson's Disease Society Brain Bank Clinical Diagnostic Criteria with disease severity stage 1-3 (according to modified Hoehn & Yahr staging) at ON and with end-of-dose motor fluctuations and signs of “wearing off”. Subjects were receiving treatment with levodopa/DDCI for at least 1 year with clear clinical improvement.
Clinical and safety/tolerability outcomes were also assessed as exploratory secondary outcomes. Clinical outcomes included ON and OFF-time assessed using patient-rated tools. The timing of ON and OFF state was registered (in real time) by the investigators during the matching 12-hour pharmacokinetic evaluation, as such applied on the pharmacokinetics days only), and patients also completed 24-hour Hauser ON/OFF diary charts (in 30 minute blocks) during the three days before each pharmacokinetic visit. […] In addition, the patient global impression of change (PGI-C) of opicapone 50 mg was evaluated at the end of the LD/CD 400/100 mg plus opicapone treatment, compared to before the start of the opicapone treatment. […]
All study assessments were evaluated for each LD/CD 400/100 mg plus 50 mg opicapone treatment regimen, compared to the LD/CD 500/125 mg without opicapone regimen.

SMILES: CCN(CC)C(=O)/C(C#N)=C/c1cc(O)c(O)c([N+](=O)[O-])c1 [entacapone]
frequency of dyskinesia [1]: increased frequency of dyskinesia

SMILES: N[C@@H](Cc1ccc(O)c(O)c1)C(=O)O [levodopa, L-3,4-dihydroxyphenylalanine]
half-life of oral levodopa [2]: 1 to 1.5 h

difference in levodopa tmax [3]: no impact
increase in levodopa t1/2 [3]: at least doubled
SMILES: Cc1c(Cl)c(C)[n+]([O-])c(Cl)c1-c1noc(-c2cc(O)c(O)c([N+](=O)[O-])c2)n1 [opicapone]
OFF time [4]: reduced OFF time
ON time [4]: increased ON time
